Seven compounds from BindingDB's records for doi:10.7270/Q23F4N29 (Broad Institute, 2010) can be followed below.

Usually EC50 stands for the concentration that produces a half-maximal response. The low end stands for higher potency in that assay, the high end for lower potency in that assay.

The experiment deals with T1, S-ribosylhomocysteine lyase (Vibrio harveyi, UniProt B0LUE4).
T1 sequence (B0LUE4 whole entry): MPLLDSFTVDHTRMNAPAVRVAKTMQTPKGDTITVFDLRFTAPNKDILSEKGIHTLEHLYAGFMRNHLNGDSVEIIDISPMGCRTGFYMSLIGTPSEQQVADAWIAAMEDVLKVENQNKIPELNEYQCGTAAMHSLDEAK
Put plainly: inhibition of purified LuxS SRH cleavage – biochemical, cell-free, homogeneous, mechanism study for V. harveyi quorum sensing inhibitors, dose response (AID 434944).

In turn, `CCc1ccc(S(=O)(=O)Nc2ccc(Br)cn2)cc1` [MLS001211346] displayed an EC50 greater than 350 µM.

For the compound `COc1cc(NC(=O)CN2C(=O)NC(c3ccccc3)(c3ccccc3)C2=O)cc(OC)c1` [MLS001176525], the EC50 was greater than 350 µM. The same measure for `CCCc1ccc(S(=O)(=O)N(C)S(=O)(=O)c2ccc(F)cc2)cc1` [N-(4-fluorophenyl)sulfonyl-N-methyl-4-propylbenzenesulfonamide]: greater than 350 µM. The compound `Cc1cccc(NS(=O)(=O)c2ccc(Oc3ccccc3)cc2)n1` [SMR000071466] came in with an EC50 greater than 350 µM. The same measure for `Cn1cnc(S(=O)(=O)Nc2ccc(OC(F)(F)F)cc2)c1` [SMR000314513]: greater than 350 µM; for `CN(C)S(=O)(=O)c1ccc(NC(=S)NC(=O)Cc2ccccc2)cc1` [N-[[4-(dimethylsulfamoyl)phenyl]carbamothioyl]-2-phenyl-ethanamide]: greater than 350 µM; for `C=Cn1c(C(=O)O)ccc1-c1ccc(CC)cc1`: 149 µM.
